Where a SMILES comes first, the peptide text is derived from it.
Target: T1, CCKAR (Rattus norvegicus, UniProt P30551)
T1 construct: expressed in transfected cells; host or cells: CHO cells
T1 sequence (P30551 1-444): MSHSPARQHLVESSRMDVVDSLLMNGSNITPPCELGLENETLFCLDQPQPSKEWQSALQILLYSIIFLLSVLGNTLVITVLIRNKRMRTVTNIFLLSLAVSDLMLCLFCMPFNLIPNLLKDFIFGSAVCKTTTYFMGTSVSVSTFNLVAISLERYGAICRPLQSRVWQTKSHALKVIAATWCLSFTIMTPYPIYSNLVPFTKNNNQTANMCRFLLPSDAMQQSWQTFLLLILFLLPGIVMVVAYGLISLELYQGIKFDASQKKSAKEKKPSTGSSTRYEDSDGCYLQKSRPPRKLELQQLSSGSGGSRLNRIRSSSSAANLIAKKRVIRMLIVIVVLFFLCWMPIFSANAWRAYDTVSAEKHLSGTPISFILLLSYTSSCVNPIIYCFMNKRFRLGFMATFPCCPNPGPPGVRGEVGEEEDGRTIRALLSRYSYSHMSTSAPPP
Assay: Inhibition of CCK-8 evoked intracellular calcium release in CHO cells stably transfected with rat CCKAR
Type: cell-based
Method: The activity of peptides from the CCKAR transmembrane domain were tested in transfected CHO cells that stably express rat […] et al. (1997), J. Biol. Chem. 272: 14817-14824). Sulfated cholecystokinin octapeptide was the CCKAR agonist. Determination of intracellular calcium release was performed as described in example 1 above. None of CCKAR-derived peptides served as antagonists of chemokine receptors and none could inhibit HIV-1 infection. The activity of the antagonists in inhibiting signaling through the receptor was compared to the ability to prevent agonist binding (Table 4). Inhibition of signaling was assessed in CCK-8 evoked intracellular calcium release in FURA-2/AM treated CHO cells stably transfected with rat […], et al. (1997) J. Biol. Chem. 272:14817). Inhibition of ligand binding was measured with the use of a fluorescent agonist, rhodamine green CCK-8 (RG-CCK-8) and quantitative confocal laser scanning microscopy (Tarasova, et al. (1997) J. Biol. Chem. 272:14817). Peptides derived from the first, second, and sixth transmembrane domains inhibited CCK-induced signaling through the CCKAR receptor. […] Table 4. The activity of CCKAR-derived TM peptides in inhibition of CCK-8 -induced intracellular calcium release and RG-CCK-8 binding.

Concentration, required for inhibition of signaling (CCK-8-induced intracellular calcium release, CHO cells with rat CCKAR): 2 µM
potency in inhibition of ligand signaling compared with binding (comparison of signaling and binding, Table 4): comparable potencies
SMILES: CSCC[C@H](NC(=O)[C@H](CC(C)C)NC(=O)[C@H](CC(=O)O)NC(=O)[C@H](CO)NC(=O)[C@@H](NC(=O)[C@H](C)NC(=O)[C@H](CC(C)C)NC(=O)[C@H](CO)NC(=O)[C@H](CC(C)C)NC(=O)[C@H](CC(C)C)NC(=O)[C@@H](N)Cc1ccccc1)C(C)C)C(=O)N[C@@H](CC(C)C)C(=O)N[C@@H](CS)C(=O)N[C@@H](CC(C)C)C(=O)N[C@@H](Cc1ccccc1)C(=O)N[C@@H](CS)C(=O)N[C@@H](CCSC)C(=O)N1CCC[C@H]1C(=O)N[C@@H](Cc1ccccc1)C(=O)N[C@@H](CC(N)=O)C(=O)N[C@@H](CC(C)C)C(=O)N1CCC[C@H]1C(=O)O [CCKAR-2-1] (H-FLLSLAVSDLMLCLFCMPFNLP-OH)

— patent EP1056778B1, “G PROTEIN-COUPLED RECEPTOR ANTAGONISTS” (priority 1998, dated 1999)
